Test [1] deals with T1, Full length human recombinant HDAC6 (Homo sapiens, UniProt Q9UBN7).
T1 construct: Full length human recombinant HDAC6 and HDAC11 proteins were expressed in baculoviral system
T1 sequence (Q9UBN7 1-1215): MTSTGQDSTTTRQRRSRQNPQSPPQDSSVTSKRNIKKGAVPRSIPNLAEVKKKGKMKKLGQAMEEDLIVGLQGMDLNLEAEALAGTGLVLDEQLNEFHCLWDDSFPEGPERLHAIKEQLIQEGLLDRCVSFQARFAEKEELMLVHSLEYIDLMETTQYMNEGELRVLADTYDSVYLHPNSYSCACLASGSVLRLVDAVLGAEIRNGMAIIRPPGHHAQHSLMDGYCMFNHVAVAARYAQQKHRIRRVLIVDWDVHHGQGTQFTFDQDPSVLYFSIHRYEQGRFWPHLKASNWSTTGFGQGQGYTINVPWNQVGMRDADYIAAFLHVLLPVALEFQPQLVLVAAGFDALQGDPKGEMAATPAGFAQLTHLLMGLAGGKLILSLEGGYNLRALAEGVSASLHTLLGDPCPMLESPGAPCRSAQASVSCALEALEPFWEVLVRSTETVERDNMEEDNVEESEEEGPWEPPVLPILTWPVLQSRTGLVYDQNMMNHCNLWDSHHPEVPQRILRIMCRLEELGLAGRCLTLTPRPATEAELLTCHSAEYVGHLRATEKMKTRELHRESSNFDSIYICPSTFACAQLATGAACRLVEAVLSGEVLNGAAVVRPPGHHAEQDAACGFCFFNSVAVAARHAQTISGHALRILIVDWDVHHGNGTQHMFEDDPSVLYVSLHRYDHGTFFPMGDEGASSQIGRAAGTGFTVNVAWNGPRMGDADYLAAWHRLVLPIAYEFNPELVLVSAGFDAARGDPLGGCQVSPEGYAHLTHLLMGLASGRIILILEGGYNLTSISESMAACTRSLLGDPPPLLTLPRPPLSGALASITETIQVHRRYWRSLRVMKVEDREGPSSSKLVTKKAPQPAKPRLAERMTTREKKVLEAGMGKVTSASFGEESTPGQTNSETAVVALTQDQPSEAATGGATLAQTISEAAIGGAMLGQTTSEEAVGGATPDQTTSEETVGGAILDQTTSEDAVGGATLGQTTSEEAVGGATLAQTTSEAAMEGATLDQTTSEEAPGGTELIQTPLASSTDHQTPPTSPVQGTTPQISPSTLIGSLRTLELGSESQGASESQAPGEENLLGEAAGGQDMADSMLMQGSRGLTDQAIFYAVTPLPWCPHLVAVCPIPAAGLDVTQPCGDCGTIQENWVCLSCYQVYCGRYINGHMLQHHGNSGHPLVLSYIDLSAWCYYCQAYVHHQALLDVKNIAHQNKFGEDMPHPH
As to the kind of experiment: In vitro histone deacetylase assay, enzymatic HDAC6 (electrophoretic mobility shift assay). It counts as biochemical. The note with it: 1 nM HDAC6; 2 μM peptide substrate FAM-RHKK(Ac)—NH2; 25° C.; 12 concentrations; read-out: HDAC6 Activity Range (IC50). The essentials:
(§1)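 Baculovirus-expressed full-length enzymes (HDAC6 1 nM, FAM-RHKK(Ac)-NH2; HDAC11 10 nM, FAM-RHKK(tri-fluor-Ac)-NH2), 2 μM substrate, HEPES pH 7.5, 25°C, 12-point 3× dilutions. Product/substrate separated by microfluidic mobility shift after SDS quench; IC50 from 4-parameter fit, reported as +/++/+++ bins.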
A general note: Mobility shift assays separate free from complexed probe on a gel.

Test [2] deals with T2, Full length human recombinant HDAC11 (Homo sapiens, UniProt Q96DB2).
T2 construct: Full length human recombinant HDAC6 and HDAC11 proteins were expressed in baculoviral system
T2 sequence (Q96DB2 1-347): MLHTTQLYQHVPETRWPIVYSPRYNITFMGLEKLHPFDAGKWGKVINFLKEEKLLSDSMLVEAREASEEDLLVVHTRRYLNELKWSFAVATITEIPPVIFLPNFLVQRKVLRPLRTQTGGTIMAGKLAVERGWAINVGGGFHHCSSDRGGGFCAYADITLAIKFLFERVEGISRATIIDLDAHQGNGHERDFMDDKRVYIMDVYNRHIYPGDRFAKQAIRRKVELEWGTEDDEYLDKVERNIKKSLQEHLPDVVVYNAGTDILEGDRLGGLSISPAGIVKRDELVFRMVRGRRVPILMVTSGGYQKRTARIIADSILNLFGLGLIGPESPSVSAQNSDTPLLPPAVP
As to the kind of experiment: In vitro histone deacetylase assay, enzymatic HDAC11 (electrophoretic mobility shift assay). It counts as biochemical. The note with it: 10 nM HDAC11; 2 μM peptide substrate FAM-RHKK(tri-fluor-Ac)—NH2; 25° C.; 12 concentrations; read-out: HDAC11 Activity Range (IC50). The essentials: as §1

SMILES strings stand for the structures. pIC50: −log10 of the molar value. A value given as a limit tells only on which side of the number the result lay.

The term pIC50 denotes the IC50 on a negative log10 scale, so that one unit is a factor of ten.

For `O=C(NO)c1ccc2c(c1)C[C@]1(CC2)CCN(c2nc3ccccc3[nH]2)C1=O` [Compound I-32, (R)-1′-(1H-benzo[d]imidazol-2-yl)-N-hydroxy-2′-oxo-3,4-dihydro-1H-spiro[naphthalene-2,3′-pyrrolidine]-7-carboxamide], the negative-log IC50 (pIC50) in test [1] is at least 7.00; in test [2] it was below 6.30.

In the case of `O=C(NO)c1ccc2c(c1)C[C@@]1(CC2)CCN(CC2CCC2)C1=O` [Compound I-53, (S)-1′-(cyclobutylmethyl)-N-hydroxy-2′-oxo-3,4-dihydro-1H-spiro[naphthalene-2,3′-pyrrolidine]-7-carboxamide], the figures for the pIC50 in test [1] and in test [2] were at least 7.00 and below 6.30, respectively.

As to `O=C(NO)c1ccc2c(c1)C[C@@]1(CC2)CC(=O)N(C2CC2)C1` [Compound I-141, (S)-1′-cyclopropyl-N-hydroxy-5′-oxo-3,4-dihydro-1H-spiro[naphthalene-2,3′-pyrrolidine]-7-carboxamide], the negative logarithm of the IC50 (pIC50) in test [1] is at least 7.00; in test [2], below 6.30.

Take `Cc1ccccc1CN1CC[C@@]2(CCc3ccc(C(=O)NO)cc3C2)C1=O` [Compound I-59, (S)—N-hydroxy-1′-(2-methylbenzyl)-2′-oxo-3,4-dihydro-1H-spiro[naphthalene-2,3′-pyrrolidine]-7-carboxamide]: the pIC50 was at least 7.00 in test [1] and below 6.30 in test [2].

As to `O=C(NO)c1ccc2c(c1)C[C@]1(CC2)CCN(Cc2ccc(Cl)cc2)C1=O` [Compound I-38, (R)-1′-(4-chlorobenzyl)-N-hydroxy-2′-oxo-3,4-dihydro-1H-spiro[naphthalene-2,3′-pyrrolidine]-7-carboxamide], the pIC50 is at least 7.00 in test [1] and below 6.30 in test [2].

As for `COc1ccc(CN2CC[C@]3(CCc4ccc(C(=O)NO)cc4C3)C2=O)cc1` [Compound I-102, (R)—N-hydroxy-1′-(4-methoxybenzyl)-2′-oxo-3,4-dihydro-1H-spiro[naphthalene-2,3′-pyrrolidine]-7-carboxamide], the pIC50 in test [1] and in test [2] was at least 7.00 each time.

`O=C(NO)c1ccc2c(c1)C[C@@]1(CC2)CCN(Cc2ccccc2OC(F)(F)F)C1=O` [Compound I-62, (S)—N-hydroxy-2′-oxo-1′-(2-(trifluoromethoxy)benzyl)-3,4-dihydro-1H-spiro[naphthalene-2,3′-pyrrolidine]-7-carboxamide]: the negative-log IC50 (pIC50) in test [1] is 6.30 to 7.00; in test [2] it was below 6.30.

With `O=C(NO)c1ccc2c(c1)C[C@]1(CC2)CCN(Cc2ccccc2)C1=O` [Compound I-36, (R)-1′-benzyl-N-hydroxy-2′-oxo-3,4-dihydro-1H-spiro[naphthalene-2,3′-pyrrolidine]-7-carboxamide], the figures for the pIC50 in test [1] and in test [2] were at least 7.00 and 6.30 to 7.00, respectively.

In the case of `O=C(NO)c1ccc2c(c1)C[C@]1(CC2)CC(=O)N(CC2COC2)C1` [Compound I-146, (R)—N-hydroxy-1′-(oxetan-3-ylmethyl)-5′-oxo-3,4-dihydro-H-spiro[naphthalene-2,3′-pyrrolidine]-7-carboxamide], the values for the pIC50 in test [1] and in test [2] were at least 7.00 and below 6.30, respectively.

For the compound `CN1CCC2(CCc3ccc(C(=O)NO)cc3C2)C1` (centres unmarked) [Compound I-9, N-hydroxy-1′-methyl-3,4-dihydro-1H-spiro[naphthalene-2,3′-pyrrolidine]-7-carboxamide], the negative logarithm of the IC50 (pIC50) is 6.30 to 7.00 in test [1] and below 6.30 in test [2].

On to `Cc1nn(C)cc1N1CC[C@]2(CCc3ccc(C(=O)NO)cc3C2)C1=O` [Compound I-109, (R)-1′-(1,3-dimethyl-1H-pyrazol-4-yl)-N-hydroxy-2′-oxo-3,4-dihydro-1H-spiro[naphthalene-2,3′-pyrrolidine]-7-carboxamide], for which the negative logarithm of the IC50 (pIC50) in test [1] was at least 7.00; in test [2], below 6.30.

Take `COc1cccc(CN2CC[C@@]3(CCc4ccc(C(=O)NO)cc4C3)C2=O)c1` [Compound I-69, (S)—N-hydroxy-1′-(3-methoxybenzyl)-2′-oxo-3,4-dihydro-1H-spiro[naphthalene-2,3′-pyrrolidine]-7-carboxamide]: the pIC50 in test [1] was at least 7.00; in test [2] it was below 6.30.

As to `O=C(NO)c1ccc2c(c1)C[C@]1(CC2)CCN(c2cccnc2)C1=O` [Compound I-29, (R)—N-hydroxy-2′-oxo-1′-(pyridin-3-yl)-3,4-dihydro-1H-spiro[naphthalene-2,3′-pyrrolidine]-7-carboxamide], the negative-log IC50 (pIC50) in test [1] was at least 7.00; in test [2], below 6.30.

Regarding `O=C(NO)c1ccc2c(c1)C[C@]1(CC2)CC(=O)N(Cc2ccc(F)cc2)C1` [Compound I-128, (R)-1′-(4-fluorobenzyl)-N-hydroxy-5′-oxo-3,4-dihydro-1H-spiro[naphthalene-2,3′-pyrrolidine]-7-carboxamide], the figures for the pIC50 in test [1] and in test [2] were at least 7.00 and below 6.30, respectively.

`O=C(NO)c1ccc2c(c1)C[C@]1(CC2)CC(=O)N(CC2CCC2)C1` [Compound I-133, (R)-1′-(cyclobutylmethyl)-N-hydroxy-5′-oxo-3,4-dihydro-1H-spiro[naphthalene-2,3′-pyrrolidine]-7-carboxamide]: the figures for the pIC50 in test [1] and in test [2] were at least 7.00 and below 6.30, respectively.

For `COCCCN1C[C@]2(CCc3ccc(C(=O)NO)cc3C2)CC1=O` [Compound I-136, (S)—N-hydroxy-1′-(3-methoxypropyl)-5′-oxo-3,4-dihydro-1H-spiro[naphthalene-2,3′-pyrrolidine]-7-carboxamide], the negative logarithm of the IC50 (pIC50) was at least 7.00 in test [1] and below 6.30 in test [2].

Take `COc1cccc(CN2CC[C@]3(CCc4ccc(C(=O)NO)cc4C3)C2=O)c1` [Compound I-96, (R)—N-hydroxy-1′-(3-methoxybenzyl)-2′-oxo-3,4-dihydro-1H-spiro[naphthalene-2,3′-pyrrolidine]-7-carboxamide]: the pIC50 in test [1] was at least 7.00; in test [2], 6.30 to 7.00.

`CN1CC[C@]2(CCc3ccc(C(=O)NO)cc3C2)C1=O` [Compound I-120, (R)—N-hydroxy-1′-methyl-2′-oxo-3,4-dihydro-1H-spiro[naphthalene-2,3′-pyrrolidine]-7-carboxamide]: the pIC50 in test [1] is at least 7.00; in test [2], below 6.30.

Consider `COCCCN1C[C@@]2(CCc3ccc(C(=O)NO)cc3C2)CC1=O` [Compound I-135, (R)—N-hydroxy-1′-(3-methoxypropyl)-5′-oxo-3,4-dihydro-1H-spiro[naphthalene-2,3′-pyrrolidine]-7-carboxamide], for which the pIC50 in test [1] is at least 7.00; in test [2] it was below 6.30.

On to `COc1ccccc1N1CC[C@@]2(CCc3ccc(C(=O)NO)cc3C2)C1=O` [Compound I-114, (S)—N-hydroxy-1′-(2-methoxyphenyl)-2′-oxo-3,4-dihydro-1H-spiro[naphthalene-2,3′-pyrrolidine]-7-carboxamide], for which the pIC50 in test [1] was at least 7.00; in test [2], below 6.30.

`CCN1C[C@@]2(CCc3ccc(C(=O)NO)cc3C2)CC1=O` [Compound I-142, (R)-1′-ethyl-N-hydroxy-5′-oxo-3,4-dihydro-1H-spiro[naphthalene-2,3′-pyrrolidine]-7-carboxamide]: the negative logarithm of the IC50 (pIC50) in test [1] is at least 7.00; in test [2], below 6.30.

As to `O=C(NO)c1ccc2c(c1)C[C@]1(CC2)CCN(c2cccc3c2OCC3)C1=O` [Compound I-108, (R)-1′-(2,3-dihydrobenzofuran-7-yl)-N-hydroxy-2′-oxo-3,4-dihydro-1H-spiro[naphthalene-2,3′-pyrrolidine]-7-carboxamide], the pIC50 in test [1] is at least 7.00; in test [2], below 6.30.

For the origin of these results see patent publication US9637453B2, “3-spirocyclic-6-hydroxamic acid tetralins as HDAC inhibitors” (Forma Therapeutics, Inc., priority 2015, dated 2017).
